Measured values from patent publication US11478451B1, “Macrocyclic chlorine substituted indole derivatives” (Bayer Aktiengesellschaft, priority 2017, dated 2022).
Where a name gives a salt, the structure may show the parent alone. Read-outs that look alike come from different tables or passages of the source.

Assays:
SUDHL10 cells [1] = assay: Induction of caspase-3/7 activity (Caspase-Glo 3/7), SUDHL10; assay type: cell-based; details: EC50, median; SUDHL10, 3 h treatment
Procedure: (§1) Induction of Caspase-3/7 Activity Upon Treatment of Cells with Selected Compounds
(§2) The BH3-domain of MCL-1 sequesters pro-apoptotic proteins, thereby inhibiting apoptosis. In contrast, MCL-1 inhibitors are expected to antagonize this effect leading to an increase in apoptosis, which can be determined by measuring the activity of caspase-3/7.
(§3) The activity of caspase-3/7 was determined in DLBCL (Diffuse large B-cell lymphoma) cell lines (SUDHL5 and SUDHL10) upon treatment with different compounds, using the Caspase-Glo® 3/7 reagent from Promega (G8092).
(§4) Rim wells were excluded. The cells were incubated for 3 h hours in a humidified incubator at 37° C.
(§5) For the evaluation of the results, the background measured with “medium-only” was subtracted from all other values.

SUDHL5 cells [2] = assay: Induction of cytotoxicity (CellTiter-Glo, 5 h), SUDHL5; details: SUDHL5, 5 h
SUDHL10 cells [3] = assay: Induction of cytotoxicity (CellTiter-Glo, 5 h), SUDHL10; details: read-out: Cytotox SUDHL10 [M] (median); IC50, median; SUDHL10, 5 h
AMO-1 cells = assay: Antiproliferation assay (CellTiter-Glo, 72 h), AMO-1; assay type: cell-based; details: IC50, median, AMO-1, 72 h, read-out: Antiproli AMO-1 [M] median
Procedure: Assessment of the Anti-Proliferative Effect of Compounds in Different Cell Lines
The impact of compounds on the proliferation of different cell lines was assessed using the CellTiter-Glo® Luminescent Cell Viability reagent from Promega (G7573).
In parallel, cells were plated in a reference (day 0) plate for time zero determination.
Rim wells were excluded. The cells were incubated for 72 h hours in a humidified incubator at 37° C. The day 0 plate was measured by adding 30 μL/well of CTG solution (CellTiter-Glo® Luminescent Cell Viability reagent, Promega G7573) to time zero wells in the reference plate followed by a 10 minutes incubation and luminescence reading at 0.1 ms. using the PHERAstar FS microplate reader (BMG Labtech).
After 72 h incubation, the treated plates were measured in the same way as the day 0 plate mentioned above.

SUDHL5 cells [4] = assay: Induction of caspase-3/7 activity (Caspase-Glo 3/7), SUDHL5; assay type: cell-based; details: EC50, median, SUDHL5, 3 h treatment
Procedure: as §1, §2, §3, §4, §5

[5] = read-out: Cytotox SUDHL5 [M] (median), IC50, median
[6] = Homo sapiens, SU-DHL-5, 5 h, read-out: Cytotox SUDHL5 [M] (median), IC50, median

Question: What does the source list for CCc1c2c(nn1C)COCC(O)CCn1c(C(=O)O)c(CCCOc3cccc4cc(F)ccc34)c3ccc(Cl)c-2c31 (stereo not shown) [Example 102, 4-chloro-3-ethyl-7-{3-[(6-fluoronaphthalen-1-yl)oxy]propyl}-12-hydroxy-2-methyl-2,10,11,12,13,15-hexahydropyrazolo[4′,3′:9,10][1,6]oxazacycloundecino[8,7,6-hi]indole-8-carboxylic acid-N-ethylethanamine salt]?
Answer: EC50 (SUDHL10 cells [1]): 7.8 µM; IC50 (SUDHL5 cells [2]; [5]): 8.4e-06 M; IC50 (SUDHL10 cells [3]): 8.2e-06 M

Question: With Cc1c2c(nn1C)COCC(F)(F)CCn1c(C(=O)O)c(CCCOc3cccc4ccccc34)c3ccc(Cl)c-2c31 (single isomer, unassigned; enantiomer 2) [Example 57, 4-chloro-12,12-difluoro-2,3-dimethyl-7-{3-[(naphthalen-1-yl)oxy]propyl}-2,10,11,12,13,15-hexahydropyrazolo[4′,3′:9,10][1,6]oxazacycloundecino[8,7,6-hi]indole-8-carboxylic acid-N-ethylethanamine salt—Enantiomer 2] as the compound, how does the EC50 (SUDHL10 cells [1]) read?
Answer: 8 µM

Question: And the IC50 (AMO-1 cells)?
Answer: 7.6e-06 M

Question: And the IC50 (SUDHL5 cells [2]; [5])?
Answer: 4.9e-06 M

Question: What about the EC50 (SUDHL5 cells [4]) of the same compound?
Answer: 3.2 µM

Question: With CCc1c2c(nn1C)CN(C)CCCCn1c(C(=O)O)c(CCCOc3cccc4ccccc34)c3ccc(Cl)c-2c31 (single isomer, unassigned; enantiomer 2) [Example 24, 4-chloro-3-ethyl-2,14-dimethyl-7-[3-(naphthalen-1-yloxy)propyl]-10,11,12,13,14,15-hexahydro-2H-pyrazolo[3′,4′:8,9][1,6]diazacycloundecino[10,11,1-hi]indole-8-carboxylic acid (Enantiomer 2)] as the compound, how does the EC50 (SUDHL5 cells [4]; Homo sapiens, SU-DHL-5, 3 h) read?
Answer: 4.5 µM

Question: With CCc1c2c(nn1C)CN(C)CCCCn1c(C(=O)O)c(CCCOc3cccc4cc(F)ccc34)c3ccc(Cl)c-2c31 (racemic) [Example 5, (rac)-4-chloro-3-ethyl-7-{3-[(6-fluoronaphthalen-1-yl)oxy]propyl}-2,14-dimethyl-10,11,12,13,14,15-hexahydro-2H-pyrazolo[3′,4′:8,9][1,6]diazacycloundecino[10,11,1-hi]indole-8-carboxylic acid] as the compound, how does the IC50 (AMO-1 cells; Homo sapiens, AMO1, 72 h) read?
Answer: 6.1e-07 M

Question: What does the source list for Cc1c2c(nn1C)COCC(F)(F)CCn1c(C(=O)O)c(CCCOc3cccc4cc(F)ccc34)c3ccc(Cl)c-2c31 (racemic) [Example 90, (rac)-4-Chloro-12,12-difluoro-7-{3-[(6-fluoronaphthalen-1-yl)oxy]propyl}-2,3-dimethyl-2,10,11,12,13,15-hexahydropyrazolo[4′,3′:9,10][1,6]oxazacycloundecino[8,7,6-hi]indole-8-carboxylic acid]?
Answer: IC50 (AMO-1 cells; Homo sapiens, AMO1, 72 h): 4.9e-06 M; IC50 (SUDHL5 cells [2]; [6]): 9.9e-06 M; EC50 (SUDHL5 cells [4]; Homo sapiens, SU-DHL-5, 3 h): 8.5 µM

Question: For CCc1c2c(nn1C)CCCCCCn1c(C(=O)O)c(CCCOc3cccc4cc(F)ccc34)c3ccc(Cl)c-2c31 (racemic) [Example 54, (rac)-4-chloro-3-ethyl-7-{3-[(6-fluoronaphthalen-1-yl)oxy]propyl}-2-methyl-10,11,12,13,14,15-hexahydro-2H-pyrazolo[4′,3′:4,5]azacycloundecino[3,2,1-hi]indole-8-carboxylic acid], which EC50 (SUDHL5 cells [4]; Homo sapiens, SU-DHL-5, 3 h) is on record?
Answer: 3.5 µM

Question: For CCc1c2c(nn1C)CN(CCOC)CCCCn1c(C(=O)O)c(CCCOc3cccc4cc(F)ccc34)c3ccc(Cl)c-2c31 (single isomer, unassigned; enantiomer 1) [Example 132, 4-chloro-3-ethyl-7-{3-[(6-fluoronaphthalen-1-yl)oxy]propyl}-14-(2-methoxyethyl)-2-methyl-10,11,12,13,14,15-hexahydro-2H-pyrazolo[3′,4′:8,9][1,6]diazacycloundecino[10,11,1-hi]indole-8-carboxylic acid (Enantiomer 1)], which IC50 (SUDHL5 cells [2]; [6]) is on record?
Answer: 8.2e-06 M

Question: What about the EC50 (SUDHL5 cells [4]; Homo sapiens, SU-DHL-5, 3 h) of the same compound?
Answer: 9.3 µM

Question: Cc1c2c(nn1C)COCCCCn1c(C(=O)O)c(CCCOc3cccc4cc(F)ccc34)c3ccc(Cl)c-2c31 (racemic) [Example 14, (rac)-4-chloro-7-{3-[(6-fluoronaphthalen-1-yl)oxy]propyl}-2,3-dimethyl-2,10,11,12,13,15-hexahydropyrazolo[4′,3′:9,10][1,6]oxazacycloundecino[8,7,6-hi]indole-8-carboxylic acid] was tested. Which IC50 (AMO-1 cells; Homo sapiens, AMO1, 72 h) did it give?
Answer: 7.4e-07 M

Question: For CCc1c2c(nn1C)COCCCCn1c(C(=O)O)c(CCCOc3cccc4cc(F)ccc34)c3ccc(Cl)c-2c31 (single isomer, unassigned; enantiomer 2) [Example 38, (−)-4-chloro-3-ethyl-7-{3-[(6-fluoronaphthalen-1-yl)oxy]propyl}-2-methyl-2,10,11,12,13,15-hexahydropyrazolo[4′,3′:9,10][1,6]oxazacycloundecino[8,7,6-hi]indole-8-carboxylic acid-N-ethylethanamine salt (Enantiomer 2)], which EC50 (SUDHL5 cells [4]; Homo sapiens, SU-DHL-5, 3 h) is on record?
Answer: 5.4 µM

Question: With Cc1nn(C)c2c1-c1c(Cl)ccc3c(CCCOc4cccc5ccccc45)c(C(=O)O)n(c13)CCCCOC2 (racemic) [Example 2, rac-4-chloro-1,3-dimethyl-7-[3-(naphthalen-1-yloxy)propyl]-1,10,11,12,13,15-hexahydropyrazolo[4′,3′:9,10][1,6]oxazacycloundecino[8,7,6-hi]indole-8-carboxylic acid] as the compound, how does the IC50 (AMO-1 cells; Homo sapiens, AMO1, 72 h) read?
Answer: 4.9e-06 M

Question: How did the IC50 (AMO-1 cells) turn out when CCc1c2c(nn1C)CN(C)CCCCn1c(C(=O)O)c(CCCOc3cccc4cc(F)ccc34)c3ccc(Cl)c-2c31 (single isomer, unassigned; enantiomer 2) [Example 7, 4-chloro-3-ethyl-7-{3-[(6-fluoronaphthalen-1-yl)oxy]propyl}-2,14-dimethyl-10,11,12,13,14,15-hexahydro-2H-pyrazolo[3′,4′:8,9][1,6]diazacycloundecino[10,11,1-hi]indole-8-carboxylic acid (Enantiomer 2)] was run?
Answer: 6.6e-06 M

Question: What about the IC50 (SUDHL5 cells [2]; [5]) of the same compound?
Answer: 6.1e-06 M

Question: What about the EC50 (SUDHL5 cells [4]; Homo sapiens, SU-DHL-5, 3 h) of the same compound?
Answer: 8 µM

Question: What about the IC50 (SUDHL10 cells [3]) of the same compound?
Answer: 9.3e-06 M

Question: For CCc1c2c(nn1C)COCCCCn1c(C(=O)O)c(CCCOc3cccc4cc(F)ccc34)c3ccc(Cl)c-2c31 (racemic) [Example 36, (rac)-4-chloro-3-ethyl-7-{3-[(6-fluoronaphthalen-1-yl)oxy]propyl}-2-methyl-2,10,11,12,13,15-hexahydropyrazolo[4′,3′:9,10][1,6]oxazacycloundecino[8,7,6-hi]indole-8-carboxylic acid], which IC50 (AMO-1 cells; Homo sapiens, AMO1, 72 h) is on record?
Answer: 2.9e-07 M

Question: How did the IC50 (SUDHL5 cells [2]; [6]) turn out when CCc1nn(CCN2CCOCC2)c2c1-c1c(Cl)ccc3c(CCCOc4cccc5ccccc45)c(C(=O)O)n(c13)C/C=C\CN(C)C2 (single isomer, unassigned; enantiomer 1) [Example 43, (11Z)-4-chloro-3-ethyl-14-methyl-1-[2-(morpholin-4-yl)ethyl]-7-{3-[(naphthalen-1-yl)oxy]propyl}-10,13,14,15-tetrahydro-1H-pyrazolo[3′,4′:8,9][1,6]diazacycloundecino[10,11,1-hi]indole-8-carboxylic acid-ammonia salt (Enantiomer 1)] was run?
Answer: 6e-07 M

Question: For CCc1c2c(nn1C)CCCCCCn1c(C(=O)O)c(CCCOc3cccc4ccccc34)c3ccc(Cl)c-2c31 (single isomer, unassigned; enantiomer 1) [Example 52, (+)-4-chloro-3-ethyl-2-methyl-7-{3-[(naphthalen-1-yl)oxy]propyl}-10,11,12,13,14,15-hexahydro-2H-pyrazolo[4′,3′:4,5]azacycloundecino[3,2,1-hi]indole-8-carboxylic acid-N-ethylethanamine salt—Enantiomer 1], which IC50 (AMO-1 cells; Homo sapiens, AMO1, 72 h) is on record?
Answer: 2.2e-06 M

Question: What about the EC50 (SUDHL5 cells [4]; Homo sapiens, SU-DHL-5, 3 h) of the same compound?
Answer: 0.8 µM

Question: And the IC50 (SUDHL10 cells [3])?
Answer: 2e-06 M

Question: For CCc1c2c(nn1C)CN(C)CCCCn1c(C(=O)O)c(CCCOc3cccc4ccccc34)c3ccc(Cl)c-2c31 (racemic) [Example 22, (rac)-4-chloro-3-ethyl-2,14-dimethyl-7-[3-(naphthalen-1-yloxy)propyl]-10,11,12,13,14,15-hexa-hydro-2H-pyrazolo[3′,4′:8,9][1,6]diazacycloundecino[10,11,1-hi]indole-8-carboxylic acid], which IC50 (AMO-1 cells; Homo sapiens, AMO1, 72 h) is on record?
Answer: 6.6e-07 M

Question: Cc1c2c(nn1C)COCC1CCC1Cn1c(C(=O)O)c(CCCOc3cccc4ccccc34)c3ccc(Cl)c-2c31 (single isomer, unassigned; stereoisomer 1) [Example 63] was tested. Which EC50 (SUDHL5 cells [4]) did it give?
Answer: 9 µM

Question: Which results are given for CCc1nn(CCN2CCOCC2)c2c1-c1c(Cl)ccc3c(CCCOc4cccc5ccccc45)c(C(=O)O)n(c13)CCCCN(C)C2 (single isomer, unassigned; enantiomer 1) [Example 46, 4-chloro-3-ethyl-14-methyl-1-[2-(morpholin-4-yl)ethyl]-7-{3-[(naphthalen-1-yl)oxy]propyl}-10,11,12,13,14,15-hexahydro-1H-pyrazolo[3′,4′:8,9][1,6]diazacycloundecino[10,11,1-hi]indole-8-carboxylic acid (Enantiomer 1)]?
Answer: IC50 (AMO-1 cells; Homo sapiens, AMO1, 72 h): 5.9e-07 M; IC50 (SUDHL5 cells [2]; [5]): 4e-07 M
